Experiment [1] concerns the target T1, caspase-3 (Rattus norvegicus, UniProt P55213).
T1 construct: endogenous in cells; host or cells: primary rat thymocytes (Sprague-Dawley), spontaneous apoptosis in culture
T1 sequence (P55213 29-175 limits assumed): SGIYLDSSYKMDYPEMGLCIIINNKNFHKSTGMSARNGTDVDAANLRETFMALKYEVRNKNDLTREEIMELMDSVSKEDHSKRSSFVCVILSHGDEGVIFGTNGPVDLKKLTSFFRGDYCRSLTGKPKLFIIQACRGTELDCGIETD
T1 sequence (P55213 176-277 limits assumed): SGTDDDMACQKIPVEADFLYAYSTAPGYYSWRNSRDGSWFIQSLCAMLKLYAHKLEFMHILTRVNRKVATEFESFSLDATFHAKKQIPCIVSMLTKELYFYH
Kind of experiment: Saturation labeling of caspases in protein extracts of thymi from CLP-operated rats dosed with M867. Format: binding. The note with it: low specific activity probe, 80 μg rat thymus extract. The procedure: FIG. 7. Comparison of p17 caspase labeled with [^125I]-M808 for a short or a long incubation period. Septic rats were dosed intravenously with either vehicle or the indicated concentration of M867. Thymi were collected 24 hours post-CLP surgery. Western blot showing the appearance of cleaved p17 caspase-3. Partial caspase-3 labeling with high specific activity probe for 5 minutes. Saturated [^125I]-M808 labeling of active caspases in the same thymi extracts with low specific activity probe for 3 hours or 18 hours. During the long incubation period, M867 originally present on caspase-3 (seen from low or absent labeling) dissociates from the active site and is replaced by the irreversible active site probe [^125I]-M808. Displacement is essentially complete by 3 hours since no change in labeling intensity was observed between a 3 h and 18 h incubation period at 37° C.
Quantitation of total amount of active caspase can be determined by exposing protein extracts from either cultured cells (Jurkats, thymocytes) of CLP-derived rat thymi to low-specific activity [^125I]-M808 for long period of time. Briefly, 80 μg of rat thymus protein extracts from CLP-operated rats dosed with M867, were incubated for 3 hours or 18 hours with 1250 M808 (5 nM at 2000 Ci/mmole) and M808 (395 nM). […]

Experiment [2] deals with spectrin cleavage. Kind of experiment: Spectrin cleavage in cultured thymocytes. Format: cell-based. The conditions noted are these: Rattus norvegicus, Thymocyte, N. Methot et al., in press, read-out: IC50, inhibition of spectrin cleavage.
The subject of experiment [3] is rat thymocytes. Kind of experiment: DNA fragmentation (flow cytometry) in cultured rat thymocytes. Format: cell-based. The note with it: for IC50: Rattus norvegicus, Thymocyte. The procedure:
Rat thymocytes were cultured for 24 hours at a density of 10×10^6 cells/ml in CytoSF4 supplemented with 2 mM L-glutamine and penicillin-streptamycin and the indicated concentration of caspase inhibitors.
DNA fragmentation was determined by flow cytometry on 1.5×10^6 thymocytes or 500,000 Jurkat cells fixed for 30 min on ice in 80% EtOH. The cells were pelleted by centrifugation at 300 g for 10 min, suspended in PBS and incubated on ice for 45 min. […] Several dilutions were prepared for each sample to ensure that signal would be found within the assays linear range.
For orientation: A flow cytometer gives signals particle by particle.

Experiment [4] concerns the target T2, caspase-3 (Homo sapiens, UniProt P42574).
T2 construct: endogenous in cells; host or cells: Jurkat cells, apoptosis induced with camptothecin
T2 sequence (P42574 29-175 limits assumed): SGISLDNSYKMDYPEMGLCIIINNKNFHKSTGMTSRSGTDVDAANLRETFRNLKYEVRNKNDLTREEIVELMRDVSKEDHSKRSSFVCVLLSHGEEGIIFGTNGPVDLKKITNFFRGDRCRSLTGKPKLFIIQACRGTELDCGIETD
T2 sequence (P42574 176-277 limits assumed): T1 sequence (P55213 176-277 limits assumed) with T3V, Q10H, R35K, L50Q, H53D, L77F
Kind of experiment: Caspase-3 western blot on camptothecin-treated Jurkat cell extracts. Format: cell-based. The conditions noted are these: camptothecin-treated Jurkat cells, FIG. 4. How it is done:
Jurkat cells (ATCC # TEB-152) were maintained in RPMI1640 supplemented with 10% FBS, 2 mM L-glutamine and antibiotics (penicillin and streptamycin). Apoptosis was induced on cells (1 million cells/ml) that had been starved for 36 hours in CytoSf4 media (Kemp technologies) by addition of camptothecin (Sigma; 3 μg/ml). NT2 cells (ATCC 3813555) were cultured in DMEM+10% FBS+2 mM L-glutamine and antibiotics. Apoptosis induced with camptothecin (5 μg/ml) in culture media.
Denatured protein extracts in 1× Laemli buffer were resolved through a 18% acrylamide gradient SDS-PAGE gel (Invitrogen) at 30 mA in Tris-Glycine buffer. Samples labeled with [^125I]-M808 were migrated until the dye front reached 0.5 cm above the end of the gel, and acrylamide 1 cm above the dye front was cut out to remove all free [^125I]-M808 and reduce background. The gels were fixed for 45 minutes in a 40% Methanol-10% Acetic acid solution and dried for 90 min at 80° C. before exposure on MS Kodak film with MS intensifying screens. For Western blotting, proteins were transferred onto a […] nitrocellulose membrane (Invitrogen) in Tris-Glycine-20% methanol buffer at 40V for 2 hours. Non-specific protein binding was minimized by incubating the membranes for 1 hour in blocking buffer (5% non-fat milk/TBS/0.1% Tween-20). […] Densitometry was performed using a BioRad instrument and QuantityOne software. […]
A general note: In western blotting, separated proteins are transferred to a membrane and probed.

The structures appear in SMILES notation. Changes are numbered by the printed parent chain. Where two headings read alike, the source gives them in different places.

With `COc1ccc(I)cc1CC(=O)N[C@H](C(=O)NC(CC(=O)O)C(=O)CF)C(C)C` (stereo partly drawn) [[^125I]-M808, 5-fluoro-3-({N-[(5-iodo-2-methoxyphenyl)acetyl]-L-valyl}amino)-4-oxopentanoic acid], in experiment [1], the “incubation time sufficient to label all active caspase-3 quantitatively” value amounted to 3 h.
What is called IC50 is the concentration that gives 50% inhibition. For the compound `CCCCCN(C)CC(=O)[C@H](CC(=O)O)NC(=O)[C@H](CC)n1cc(C(C)(C)C)nc(NCc2nonc2C)c1=O` [Example M867, (3S)-3-({(2S)-2-[5-tert-butyl-3-{[(4-methyl-1,2,5-oxadiazol-3-yl)methyl]amino}-2-oxopyrazin-1(2H)-yl]butanoyl}amino)-5-[methyl(pentyl)amino]-4-oxopentanoic acid], the IC50 came out at 90 nM in experiment [2]; 240 nM in experiment [3] (cultured rat thymocytes, experiment of FIG. 5, read-out: IC50, inhibition of DNA fragmentation); 270 nM in experiment [3] (cultured thymocytes, N. Methot et al., in press, p<0.01 vs spectrin cleavage, read-out: IC50, inhibition of DNA fragmentation); 270 nM in experiment [3] (five independent experiments, read-out: DNA fragmentation IC50). Besides, the “M867 required to inhibit DNA fragmentation compared to spectrin cleavage” value in experiment [3] (ratio of IC50s) is given as “Three-fold”.
Regarding `COc1ccc(-c2nc(C)no2)cc1CC(=O)N[C@H](C(=O)N[C@@H](CC(=O)O)C(=O)CSCc1ccccc1)C(C)C` [Example M791, (3S)-5-(benzylthio)-3-[(N-{[2-methoxy-5-(3-methyl-1,2,4-oxadiazol-5-yl)phenyl]acetyl}-L-valyl)amino]4-oxopentanoic acid], the “effect on caspase-3 processing (western blot)” value in experiment [4] is “prevents the auto-processing of p20 caspase 3 into p19 and p17”.

For the origin of these results see US20060069038A1, “Irreversible caspase-3 inhibitors as active site probes” (priority 2003, published 2006).
